{"source": "patent EP0104826A2", "about": "“Immunomodulator and method of use for immunomodulation” (FUJISAWA PHARMACEUTICAL CO., LTD., priority 1982, dated 1984)", "key": {"[1]": {"tested_on": "mouse spleen cells", "assay": "Mitogen (concanavalin A)-induced mouse spleen cell proliferation, 3H-thymidine incorporation; suppression by immunosuppressive factor and restoration", "assay_type": "cell-based", "experimental": "1) Preparation of immunosuppressive factor from tumor bearing mice serum.\nICR mice were intraperitonealy inoculated with 0.2 ml of S-180 suspension (5x10^6 cells/ml). S-180 bearing mice were bled from heart under light ether anesthesia with sterile synringe between 7 and 9 days after transplantation and serum was collected.\nImmunosuppressive factor was partially purified from the S-180 tumor bearing mice serum according to the method described by SE-KYUNG OH and F.L.MOOLTEN (J. Immunol., 127, 2300-2307, 1981). Briefly, the serum (50 ml) was delipidated with 1/10 vol. of 4% phosphotungstic acid and 1/40 vol of 2M magnesium chloride and centrifuged at 6000 x G for 10 min. Excess phosphotungstic acid and magnesium ion were removed by dialysis against phosphate- buffered saline (PBS: 0.15 M sodium chloride and 0.01 M phosphate buffer, pH 7.4). Then, partially delipidated serum was precipitated with ammonium sulfate at 50% saturation. The supernatant was removed by centrifugation at 20000 x G for 30 min. The precipitates were redissolved in a small volume of water and dialysed against PBS overnight at 4°C. The dialysed solution was chromatographed on Sephadex G-200 column in PBS. Each eluate (15 ml) was assayed for suppressive activity.\nImmunosuppressive activity was measured by assay for inhibition of the mitogen-induced mouse spleen cell proliferation.\n3) Suppression of mitogen-induced mouse spleen cell proliferation and its restoration by swainsonine in vitro.\nMitogenic activities for mouse spleen cells in vitro : • a) Mice. Female BALB/C strain (8 weeks of age) was used. • b) Tissue culture medium : The tissue culture medium employed was a complete medium designated Roswell Park Memorial Institute(RPMI)-1640. All media employed contained 100 units/ml of penicillin G and 100 µg/ml of streptomycin sulfate and 5% fetal calf serum. • c) Spleen cell preparation : Spleens were removed under sterile conditions and washed with Hanks solution and then teased in the tissue culture medium. The cells were suspended in the tissue culture medium to contain 5 x 10^5 cells/ml. • d) Culture conditions : Into each hole of Microtiteration plate (Falcon No. 3040) were poured 0.1 ml of the above cells suspension and 0.1 ml of the prescribed concentrate of the compound and/or immunosuppressive factor described above. […] The culture was incubated in triplicate at 37°C in a humidified atmosphere (95% air, 5% C02) for 48 hours. • e) Assay for mitogen induced mouse spleen cells proliferation. The mitogen induced mouse spleen cells proliferation was assayed for tritiated thymidine (^3H-thymidine) incorporation. In all tests, 20 pl of 10 micro curie (uCi)/ml of ^3H-thymidine was added to each hole for the 48 hours of culture. After further 24 hours incubation, the culture was terminated.\nThe resultant cells were filtered with filter paper, Whatman GF83 and washed successively with saline and with 5% trichloroacetic acid. The filter paper was dried and placed in a scintillator(toluene 1 liter containing 0.1 g of p-bis(5-phenyl oxazole)-benzene and 4 g of 2,5-diphenyloxazole), and ^3H-thymidine incorporated into DNA was measured."}, "[2]": {"tested_on": "thymus", "assay": "Dexamethasone-induced thymus atrophy in mice", "assay_type": "in vivo", "details": "for Thymus weight: Dexamethasone treatment Yes, n=5", "experimental": "Five week-old ddY mice(male) were used. Samples were given subcutaneously twice per day from day 0 to day 2 of the experiment. Five hours after first medication on day 0, mice were supplied with drinking water containing 1 ug/ml of dexamethasone.\nAt day 2, the weight of thymus of the treated mice was compared with that of the nontreated controls."}, "[3]": {"tested_on": "antibody forming capacities against SRBC", "assay": "Antibody forming capacity (direct plaque-forming cells against SRBC) in mice injected with immunosuppressive factor", "assay_type": "in vivo", "experimental": "Splenic lymphocytes producing antibody against sheep blood red cells (SRBC) were quantitated using Cunningham modification (Cunningham, A.J., Nature, 207, 1106-1107, 1965) of the Jerne plaque assay.\n[…] Samples were administered to mice intraperitoneally four times before immunization. Mice were sacrificed 4 days after the injection of SRBC, and the number of direct plaque-forming cells per spleen was determined."}, "[4]": {"tested_on": "antibody forming capacities", "assay": "Antibody forming capacity (PFC-SRBC) in mice immunosuppressed with mitomycin C", "assay_type": "in vivo", "experimental": "Female BDF1 (8 weeks in age) mice were injected intraperitoneally with mitomycin C (1 mg/kg) from four days before immuization with 5 x 10^8 SRBC, every day for three days. Samples also were administered to mice intraperitoneally from four days before immunization, every day for five days.\nAt day 9, mice were sacrificed and the number of direct plaque forming cells per spleen was measured by using Cunningham modification method."}, "[5]": {"tested_on": "Sarcoma-180 (S-180) cells", "assay": "Murine transplantable tumor, total tumor cell packed volume in ascites", "assay_type": "in vivo", "details": "mice", "experimental": "Sarcoma-180 (S-180) cells (1 x 10^6 cells) were inoculated to ICR (female, 8 weeks old) mice intraperitoneally and then after, swainsonine was administered intraperitoneally daily for 5 days. The total tumor cell packed volume in ascites was measured 15 days after tumor cell inoculation."}, "[6]": {"tested_on": "antibody forming capacities", "assay": "Antibody forming capacity (PFC-SRBC) in Sarcoma 180 tumor bearing mice", "assay_type": "in vivo", "experimental": "Female ICR(8 weeks in age) mice were intraperitoneally inoculated with 0.2 ml of Sarcoma 180 suspension (5 x 10^6 cells/ml)at day 0. Samples were administered to mice intraperitoneally from 7 days before immunization with 5 x 10^8 SRBC, every day for five days.\nThe number of direct plaque forming cells per spleen was measured five days after immunization."}, "[7]": {"details": "swainsonine alone added to mouse spleen cell culture"}}}
{"smiles": "O[C@H]1[C@H]2[C@H](O)CCCN2C[C@H]1O", "note": "[Swainsonine]", "values": [{"measurement": "Con A induced stimulation of ^3H-thymidine incorporation into mouse spleen cell, increase relative to Con A only", "setting": "[1]; Con A and swainsonine added simultaneously", "value": 10, "unit": "times"}, {"measurement": "^3H-thymidine uptake (cpm)", "setting": "[1]; Concanavalin A 0.3 µg/well + swainsonine 0.0002 µg/well", "value": "67,017 cpm"}, {"measurement": "^3H-thymidine uptake (cpm)", "setting": "[1]; Concanavalin A 0.3 µg/well + swainsonine 0.002 µg/well", "value": "105,850 cpm"}, {"measurement": "^3H-thymidine uptake (cpm)", "setting": "[1]; Concanavalin A 0.3 µg/well + swainsonine 0.02 µg/well", "value": "108,748 cpm"}, {"measurement": "^3H-thymidine uptake (cpm)", "setting": "[1]; Concanavalin A 0.3 µg/well + swainsonine 0.2 µg/well", "value": "118,071 cpm"}, {"measurement": "^3H-thymidine uptake (cpm)", "setting": "[1]; Concanavalin A 0.3 µg/well + swainsonine 2 µg/well", "value": "100,480 cpm"}, {"measurement": "^3H-thymidine uptake (cpm)", "setting": "[1]; Concanavalin A 0.3 µg/well + swainsonine 20 µg/well", "value": "68,778 cpm"}, {"measurement": "^3H-thymidine uptake (cpm)", "setting": "[1]; Concanavalin A 1 µg/well + Immunosuppressive factor 6 µl/well + swainsonine 0.002 µg/well", "value": "69,313 cpm"}, {"measurement": "^3H-thymidine uptake (cpm)", "setting": "[1]; Concanavalin A 1 µg/well + Immunosuppressive factor 6 µl/well + swainsonine 0.02 µg/well", "value": "66,858 cpm"}, {"measurement": "^3H-thymidine uptake (cpm)", "setting": "[1]; Concanavalin A 1 µg/well + Immunosuppressive factor 6 µl/well + swainsonine 0.2 µg/well", "value": "70,890 cpm"}, {"measurement": "^3H-thymidine uptake (cpm)", "setting": "[1]; Concanavalin A 1 µg/well + Immunosuppressive factor 6 µl/well + swainsonine 2 µg/well", "value": "53,500 cpm"}, {"measurement": "^3H-thymidine uptake (cpm)", "setting": "[1]; Concanavalin A 1 µg/well + Immunosuppressive factor 6 µl/well + swainsonine 20 µg/well", "value": "37,746 cpm"}, {"measurement": "^3H-thymidine uptake (cpm)", "setting": "[1]; Swainsonine alone, 0.0002 µg/well", "value": "1,311 cpm"}, {"measurement": "^3H-thymidine uptake (cpm)", "setting": "[1]; Swainsonine alone, 0.002 µg/well", "value": "1,598 cpm"}, {"measurement": "^3H-thymidine uptake (cpm)", "setting": "[1]; Swainsonine alone, 0.02 µg/well", "value": "1,712 cpm"}, {"measurement": "^3H-thymidine uptake (cpm)", "setting": "[1]; Swainsonine alone, 0.2 µg/well", "value": "1,734 cpm"}, {"measurement": "^3H-thymidine uptake (cpm)", "setting": "[1]; Swainsonine alone, 2 µg/well", "value": "1,726 cpm"}, {"measurement": "^3H-thymidine uptake (cpm)", "setting": "[1]; Swainsonine alone, 20 µg/well", "value": "1,260 cpm"}, {"measurement": "suppression of mitogenic response by immunosuppressive factor", "setting": "[1]; swainsonine added to culture containing immunosuppressive factor", "value": "prevented the suppression"}, {"measurement": "mitogenic activity of mouse spleen cell", "setting": "[1]; [7]", "value": "did not affected"}, {"measurement": "spleen cell viability", "setting": "[1]; [7]", "value": "did not affected"}, {"measurement": "Thymus weight", "setting": "[2]; sample 5 mg/kg subcutaneously twice per day", "value": 73.0, "unit": "mg/mouse"}, {"measurement": "Thymus weight", "setting": "[2]; sample 15 mg/kg subcutaneously twice per day", "value": 78.8, "unit": "mg/mouse"}, {"measurement": "Thymus weight", "setting": "[2]; sample 50 mg/kg subcutaneously twice per day", "value": 72.4, "unit": "mg/mouse"}, {"measurement": "atrophy of thymus induced by dexamethasone", "setting": "[2]; mice", "value": "prevents"}, {"measurement": "PFC-SRBC/spleen (average number of 5 mice/group)", "setting": "[3]; BDF1 mice, Swainsonine 100 mg/kg/day intraperitoneally, alone (normal mice)", "value": "16.49 x 10^4 PFC-SRBC/spleen"}, {"measurement": "PFC-SRBC/spleen (average number of 5 mice/group)", "setting": "[3]; Immunosuppressive factor (0.3 ml/mouse/day) + Swainsonine 3.7 mg/kg i.p.", "value": "20.77 x 10^4 PFC-SRBC/spleen"}, {"measurement": "PFC-SRBC/spleen (average number of 5 mice/group)", "setting": "[3]; Immunosuppressive factor (0.3 ml/mouse/day) + Swainsonine 11 mg/kg i.p.", "value": "20.08 x 10^4 PFC-SRBC/spleen"}, {"measurement": "PFC-SRBC/spleen (average number of 5 mice/group)", "setting": "[3]; Immunosuppressive factor (0.3 ml/mouse/day) + Swainsonine 33 mg/kg i.p.", "value": "20.84 x 10^4 PFC-SRBC/spleen"}, {"measurement": "PFC-SRBC/spleen (average number of 5 mice/group)", "setting": "[3]; Immunosuppressive factor (0.3 ml/mouse/day) + Swainsonine 100 mg/kg i.p.", "value": "17.39 x 10^4 PFC-SRBC/spleen"}, {"measurement": "capacities to produce antibody against SRBC", "setting": "[3]; mice injected immunosuppressive factor, intraperitoneal administration", "value": "restored the capacities"}, {"measurement": "capacities to produce antibody against SRBC", "setting": "[3]; normal mice", "value": "did not enhance"}, {"measurement": "PFC-SRBC/spleen (average number of 5 mice/group)", "setting": "[4]; BDF1 mice, Swainsonine 100 mg/kg i.p. alone", "value": "21.66 x 10^4 PFC-SRBC/spleen"}, {"measurement": "PFC-SRBC/spleen (average number of 5 mice/group)", "setting": "[4]; Mitomycin C (1.0 mg/kg) + Swainsonine 3.7 mg/kg i.p.", "value": "21.31 x 10^4 PFC-SRBC/spleen"}, {"measurement": "PFC-SRBC/spleen (average number of 5 mice/group)", "setting": "[4]; Mitomycin C (1.0 mg/kg) + Swainsonine 11 mg/kg i.p.", "value": "20.90 x 10^4 PFC-SRBC/spleen"}, {"measurement": "PFC-SRBC/spleen (average number of 5 mice/group)", "setting": "[4]; Mitomycin C (1.0 mg/kg) + Swainsonine 33 mg/kg i.p.", "value": "20.90 x 10^4 PFC-SRBC/spleen"}, {"measurement": "PFC-SRBC/spleen (average number of 5 mice/group)", "setting": "[4]; Mitomycin C (1.0 mg/kg) + Swainsonine 100 mg/kg i.p.", "value": "21.79 x 10^4 PFC-SRBC/spleen"}, {"measurement": "capacities to produce antibody against SRBC", "setting": "[4]; mice injected mitomycin C", "value": "restored the capacities"}, {"measurement": "growth of transplantable tumors", "setting": "[5]", "value": "inhibits growth"}, {"measurement": "PFC-SRBC/spleen (average number of 5 mice/group)", "setting": "[6]; ICR mice without tumor, Swainsonine 100 mg/kg i.p.", "value": "118.7 x 10^4 PFC-SRBC/spleen"}, {"measurement": "PFC-SRBC/spleen (average number of 5 mice/group)", "setting": "[6]; Tumor bearer (Sarcoma 180, ICR mice) + Swainsonine 100 mg/kg i.p., every day for five days", "value": "126.7 x 10^4 PFC-SRBC/spleen"}, {"measurement": "PFC-SRBC/spleen (average number of 5 mice/group)", "setting": "[6]; Tumor bearer + Swainsonine 3.7 mg/kg i.p.", "value": "61.6 x 10^4 PFC-SRBC/spleen"}, {"measurement": "PFC-SRBC/spleen (average number of 5 mice/group)", "setting": "[6]; Tumor bearer + Swainsonine 11 mg/kg i.p.", "value": "71.6 x 10^4 PFC-SRBC/spleen"}, {"measurement": "PFC-SRBC/spleen (average number of 5 mice/group)", "setting": "[6]; Tumor bearer + Swainsonine 33 mg/kg i.p.", "value": "123.5 x 10^4 PFC-SRBC/spleen"}, {"measurement": "capacities to produce antibody against SRBC", "setting": "[6]; tumor bearing mice", "value": "restored the capacities"}]}
